Where “and” joins values, the source holds several entries; their conditions need not be identical. Equal entries are not always repeated. Entries after “also recorded” stand apart in the source; their conditions may differ.
Columns and labels:
[1] = test system: CD3, CD4 and CD8 in peripheral blood; assay: First clinical study of HIV+ patients: CD3, CD4, CD8 levels by flow cytometry; assay type: in vivo, human; set-up: CD4 / CD8 / CD3: unit not given here; conditions: for CD3 / CD4 / CD8: one value per patient
Method: (§1) Twelve symptomatic patients (five males and seven females) between the ages of 35 to 52 all of whom were infected with HIV in 1995 through blood transfusion and were refractory to standard treatments for HIV were treated with TPA. Each patient was administered a weight adjusted dosage of TPA (75 μg/sq m) in 200 ml of sterile saline by i.v. over one hour. This dose was administered once daily for the first three days of treatment. Each patient was then given this dose every other day for days 4 to 18 followed by a six month rest period prior to a second course of treatment according to the same protocol.
[…] Levels of CD3, CD4 and CD8 in peripheral blood were measured using monoclonal antibodies (Becton Dickson Scientific Co., Franklin Lakes, N.J.) and a flow cytometer (B.D. Bioscience, San Diego, Calif.).

symptomatic HIV patients = assay: First clinical study of HIV+ patients: symptoms and side effects (incl. case studies); assay type: in vivo, human
Method: as §1
(§2) Results of treatment of initially symptomatic AIDS patients treated with TPA according to the protocols of Example III, IV, and V. Patients who participated in multiple studies are in some cases identified by more than one patient number. All patient identification numbers correspond to the patient numbers in Tables 1-7.

[2] = Second clinical study of HIV+ patients: periphery blood count; assay type: in vivo, human; conditions: one value per patient
Method: (§3) Nine of the patients in Example III were given a second treatment of TPA. Of these nine, seven were asymptomatic at the beginning of the second trial. A tenth patient (patient #2a) who was symptomatic and had not previously been treated with TPA was added to the study. Each patient was administered a weight adjusted dosage of TPA (75 μg/sq m) in 200 ml of sterile saline intravenously over one hour. This dosage was given to each patient once a day for ten consecutive days followed by a rest period of ten days for three cycles and a total of 30 doses of TPA. Patients 5a, 6a, and 8a stopped taking anti-AIDS drugs one month prior to beginning the TPA treatment and beginning again one month after the third cycle. Patients 1-4-a, 7a, and 9a-10a continued taking anti-AIDS drugs throughout the treatment.
Blood samples were taken three days prior to starting treatment, after completing the first 10 day cycle of TPA infusion and again after the last TPA infusion and CD3, CD4, CD8, WBC, RBC, HGB and platelets were measured.

HIV patients = assay: Second clinical study of HIV+ patients: symptoms and side effects (incl. case studies); assay type: in vivo, human
Method: as §3, §2

[3] = test system: relapsed/refractory AML, other myeloid malignancies, Hodgkin's Disease, non-Hodgkin's lymphoma, solid tumors; assay: TPA Phase 1 study in relapsed/refractory malignancies; assay type: in vivo
From the text: An initial TPA Phase 1 study enrolled 35 patients [23 with relapsed/refractory AML, 2 with other myeloid malignancies (CML-blast crisis, myelodysplasia with excess blasts), 3 with Hodgkin's Disease, 3 with non-Hodgkin's lymphoma and 4 with solid tumors]. The majority of patients had relapsed/refractory AML. Our clinical results include one AML patient with stable disease for >5 months, who received 8 TPA infusions. In a second AML patient, a pronounced (5-fold) decline in the number of circulating blasts was seen following TPA administration. This decline in leukemic blasts persisted for 4 weeks, and the patient eventually died from a fungal infection.

lymphoma = assay: Treatment of lymphoma (patient case); assay type: in vivo, human
From the text: Patient five was diagnosed with a re-occurrence of lymphoma and a mass of 3.5 cm in diameter. […] As of 2011, they have been in remission for three years.

metastatic liver cancer = assay: Treatment of liver cancer (patient case); assay type: in vivo, human; conditions: three injections of 0.19 mg TPA; before 50,000+
From the text: Patient X, age ? was diagnosed with metastatic liver cancer. Their initial alpha fetoprotein level was 48,813. They were given chemotherapy and radiation treatments but their alpha fetoprotein level remained elevated at 50,000+.

[4] = Reduction of periorbital hyperpigmentation; assay type: in vivo, human; conditions: 6 women and 1 man
Method: 6 women and 1 man with excessive periorbital hyperpigmentation were treated with TPA.

[5] = Treatment of carpal tunnel syndrome (patient case); assay type: in vivo, human
From the text: Patient with burning, tingling, pain and numbness in their fingers.

[6] = Four days after TPA, 75 μg/sq m i.v.
[7] = protocol of Example III (first or repeat course)
[8] = protocol of Example III (first or repeat course), individual patients
[9] = twelve symptomatic HIV patients
[10] = After first 10-day TPA infusing
[11] = After third 10-day TPA infusing
[12] = protocol of Example IV, individual patients

CCCCCCCCCCCCCC(=O)O[C@@H]1[C@@H](C)[C@@]2(O)[C@@H](C=C(CO)C[C@]3(O)C(=O)C(C)=C[C@@H]23)[C@@H]2C(C)(C)[C@]12OC(C)=O [TPA, 12-O-tetradecanoylphorbol-13-acetate]
CD3 ([1]; After TPA (patients 09-12)): 2920 and 1077 and 874 and 362
CD4 ([1]; After TPA (patients 09-12)): 663 and 445 and 131 and 78
CD8 ([1]; After TPA (patients 09-12)): <2000 and 591 and 724 and 268
CD3 ([1]; Forty two days after TPA): 799 and 424 and 581 and 1643 and 537 and 146 and 858 and 203
CD4 ([1]; Forty two days after TPA): 54 and 33 and 44 and 191 and 49 and 1 and 241 and 2
CD8 ([1]; Forty two days after TPA): 700 and 374 and 493 and 1429 and 429 and 139 and 527 and 111
CD3 [1, 6]: 427 and 941 and 1282 and 808 and 598 and 739 and 299 and 2616
CD4 [1, 6]: 36 and 123 and 119 and 179 and 7 and 318 and 3 and 105
CD8 [1, 6]: 366 and 770 and 1330 and 570 (2×) and 355 and 180 and <2000
change in CD3, CD4, or CD8 levels (summary of Table 1) ([1]; twelve patients): no consistent change or correlation was observed
duration of shortness of breath (symptomatic HIV patients; first treatment with TPA, individual patients): 15 min
platelet count after TPA treatment (symptomatic HIV patients; patient #10, rose from 30,000): 110,000 per microliter
other side effects during TPA treatment (individual patient) (symptomatic HIV patients; protocol of Example III): did not experience an increase in body temperature or any other side effect; also recorded: mild dizziness and headache; also recorded: serious skin irritation; also recorded: skin irritation due to a leaking needle
symptom free period after TPA therapy (individual patient) (symptomatic HIV patients; [7]): five months; also recorded: one year
symptoms after treatment with TPA (individual patient) (symptomatic HIV patients; [7]): gradual improvement in symptoms; also recorded: their oral lesions, skin thrush and fever disappeared; also recorded: marked improvement in their symptoms; also recorded: The lymph node returned to normal size; also recorded: no improvement in symptoms occurred; also recorded: their symptoms remained unchanged; also recorded: the frequency of their colds decreased; also recorded: their diarrhea was completely gone; also recorded: their dizziness, headache and diarrhea gradually lessened; also recorded: the dizziness, headache, fever and skin thrush were improving and gradually faded away; also recorded: their symptoms disappeared completely; also recorded: all their symptoms disappeared
duration of the increase in body temperature (symptomatic HIV patients; [8]): 1-2 hours and four and 4 hours
increase in body temperature during TPA treatment (symptomatic HIV patients; [8]): 38-39 °C and 38 °C and 38.5 °C
additional patients with a decrease in symptoms (symptomatic HIV patients; [9]): Three additional patients had a decrease in symptoms
patients who became symptom free (symptomatic HIV patients; [9]): Eight patients became symptom free
patients with significant improvement following treatment (symptomatic HIV patients; twelve symptomatic HIV patients, 75 μg/sq m i.v.): eleven of the patients showed significant improvement
HGB [2, 10]: 88 g/L and 1.38 g/L and 107 g/L and 1.35 g/L and 142 g/L and 143 g/L and 128 g/L and 57 g/L and 92 g/L and 99 g/L
PLt [2, 10]: 2.38e+11 L⁻¹ and 3.38e+11 L⁻¹ and 3.06e+11 L⁻¹ and 3.15e+11 L⁻¹ and 2.56e+11 L⁻¹ and 2.58e+11 L⁻¹ and 2.21e+11 L⁻¹ and 2.14e+11 L⁻¹ and 1.87e+11 L⁻¹ and 3.25e+11 L⁻¹
RBC [2, 10]: 2.14e+12 L⁻¹ and 3.83e+12 L⁻¹ and 2.92e+12 L⁻¹ and 3.46e+12 L⁻¹ and 3.48e+12 L⁻¹ and 3.76e+12 L⁻¹ and 3.86e+12 L⁻¹ and 1.99e+12 L⁻¹ and 2.58e+12 L⁻¹ and 2.61e+12 L⁻¹
WBC [2, 10]: 3.7e+09 L⁻¹ and 9.8e+09 L⁻¹ and 3.6e+09 L⁻¹ and 5.7e+09 L⁻¹ and 4.2e+09 L⁻¹ and 6e+09 L⁻¹ and 4.3e+09 L⁻¹ and 2.6e+09 L⁻¹ and 2.9e+09 L⁻¹ and 4.4e+09 L⁻¹
HGB [2, 11]: 102 g/L and 100 g/L and 140 g/L and 105 g/L and 144 g/L and 154 g/L and 123 g/L and 128 g/L and 67 g/L and 130 g/L
PLt [2, 11]: 182 ×10^9/L and 124 ×10^9/L and 549 ×10^9/L and 105 ×10^9/L and 130 ×10^9/L and 169 ×10^9/L and 293 ×10^9/L and 138 ×10^9/L (2×) and 170 ×10^9/L
RBC [2, 11]: 2.91e+12 L⁻¹ and 2.52e+12 L⁻¹ and 4.54e+12 L⁻¹ and 2.85e+12 L⁻¹ and 3.61e+12 L⁻¹ and 3.66e+12 L⁻¹ and 3.92e+12 L⁻¹ and 4.19e+12 L⁻¹ and 2.33e+12 L⁻¹ and 4.31e+12 L⁻¹
WBC [2, 11]: 6.1e+09 L⁻¹ and 1.11e+10 L⁻¹ and 1.36e+10 L⁻¹ and 9.2e+09 L⁻¹ and 1.01e+10 L⁻¹ and 6.5e+09 L⁻¹ and 6e+09 L⁻¹ and 6.8e+09 L⁻¹ and 4e+09 L⁻¹ and 7e+09 L⁻¹
AIDS symptoms in the symptomatic patients (#9a, #2a) (HIV patients; after three cycles of TPA): experienced a disappearance of AIDS symptoms
AIDS symptoms in the other eight patients (HIV patients; began the study without AIDS symptoms): symptom free at the end of the study
adverse effects during TPA treatment (individual patient) (HIV patients; protocol of Example IV): no adverse effects; also recorded: no side effects
symptoms after treatment with TPA (individual patient) (HIV patients; protocol of Example IV): continues to have no symptoms of AIDS; also recorded: the fever and diarrhea were no longer a problem; also recorded: does not have any symptoms of AIDS; also recorded: has not had any symptoms of AIDS; also recorded: Her mental and physical condition has improved considerably
duration of the increase in body temperature (HIV patients; [12]): two
increase in body temperature during TPA treatment (HIV patients; [12]): 38.5 degrees centigrade
patients with grade III non-hematologic dose limiting toxicities (DLT) ([3]; 0.188 mg/m2 d1-5, 8-12): 2 out of 3
maximum tolerated TPA dose as a single agent ([3]; d1-5 and 8-12): 0.125 mg/m2/d
duration of stable disease ([3]; one AML patient, 8 TPA infusions): > 5 months
response of relapsed and refractory Hodgkin's disease ([3]; one patient): partial remission of a chest wall mass
persistence of the decline in leukemic blasts ([3]; second AML patient): 4 weeks
decline in the number of circulating blasts ([3]; second AML patient, following TPA administration): 5 fold
lymphoma mass (3.5 cm in diameter) (lymphoma; 15 injections of 0.19 mg TPA every other day for 30 days): the mass disappeared
duration of remission (lymphoma; as of 2011): three years
alpha fetoprotein levels (metastatic liver cancer): returned to normal levels within four months
inflammation and hyperpigmentation in the periorbital area [4]: reduced the inflammation and hyperpigmentation in the periorbital area
use of hands [5]: regained full use of their hands

Reference: patent publication US9636317B2, “Compositions and methods of use of phorbol esters” (priority 2007, dated 2017)
